Results on 36 molecules are retold here after ChEMBL document CHEMBL6177995, “In Silico Discovery of Novel Potent Trace Amine-Associated Receptor TAAR1 Agonists as Promising Drug Candidates for the Treatment of Schizophrenia” (J Med Chem, 2025).

Broadly, the EC50 is the midpoint of the concentration-response curve.

For test [1], the target named is T1, Trace amine-associated receptor 1 (Homo sapiens, UniProt Q96RJ0).
T1 sequence (Q96RJ0 whole entry): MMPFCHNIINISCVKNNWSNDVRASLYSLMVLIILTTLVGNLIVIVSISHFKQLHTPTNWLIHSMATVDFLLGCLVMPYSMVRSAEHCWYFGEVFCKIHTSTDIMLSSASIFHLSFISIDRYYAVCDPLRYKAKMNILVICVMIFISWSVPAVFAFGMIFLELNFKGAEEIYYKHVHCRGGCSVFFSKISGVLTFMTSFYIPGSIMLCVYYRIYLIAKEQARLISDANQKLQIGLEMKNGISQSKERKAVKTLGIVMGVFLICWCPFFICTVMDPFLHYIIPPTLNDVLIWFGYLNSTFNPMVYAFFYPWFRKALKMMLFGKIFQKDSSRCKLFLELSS
The test can be described thus: Agonist activity at TAAR1 (unknown origin) transfected in HEK293 cells co-transfected with GalphaS-Nluc, Gbeta1/3 and Ggamma1/2/9-mVenus assessed as GalphaS-Gbeta/gamma dissociation by BRET assay. The format is functional, cell-based.

The target in test [2] is T1, Trace amine-associated receptor 1. The test can be described thus: Agonist activity at TAAR1 (unknown origin) transfected in HEK293 cells co-transfected with Galphaq-Nluc, Gbeta1/3 and Ggamma1/2/9-mVenus assessed as Galphaq-Gbeta/gamma dissociation by BRET assay. The format is functional, cell-based. In general terms: Bioluminescence resonance energy transfer reports proximity on the nanometre scale.

As for `O=[N+]([O-])c1cccc(S(=O)(=O)NC[C@@H]2CCCN2)c1`, the EC50 in test [1] and in test [2] was more than 10 µM each time. In the case of `O=S(=O)(NC[C@@H]1CCCN1)c1ccc2c(c1)CCC2`, the EC50 in test [1] and in test [2] was more than 10 µM in each case. Consider `COc1ccc2c(c1OC)C(=O)OC2Nc1ccccn1` (stereo not given), for which, in test [1], the EC50 was determined as 0.161 µM. Consider `Cc1ccccc1S(=O)(=O)NC[C@@H]1CCCN1`, for which the EC50 in test [1] and in test [2] was more than 10 µM each time. On to `O=S(=O)(NC[C@@H]1CCCN1)c1cccc(Cl)c1`, for which the EC50 in test [1] and in test [2] was more than 10 µM each time.

For `O=[N+]([O-])c1ccccc1S(=O)(=O)NC[C@@H]1CCCN1`, the EC50 in test [1] and in test [2] was more than 10 µM throughout.

With `O=c1[nH]c2ccc(S(=O)(=O)NC[C@@H]3CCCN3)cc2[nH]c1=O`, the 50% effective concentration (EC50) in test [2] amounted to 0.0055 µM.

Consider `O=c1[nH]c2ccc(S(=O)(=O)NC[C@@H]3CCCN3)cc2[nH]1`, for which the concentration for a half-maximal effect (EC50) in test [1] and in test [2] was more than 10 µM throughout. `COc1ccccc1S(=O)(=O)NC[C@@H]1CCCN1`: the EC50 in test [2] was 0.0078 µM.

For the molecule `O=S(=O)(NC[C@@H]1CCCN1)c1ccccc1`, the EC50 in test [1] and in test [2] was more than 10 µM in each case. On to `CCC[C@H]1CN(C(=O)c2cc(Cl)cn2C)C[C@@H]1N`, for which the EC50 in test [1] was 0.275 µM. Consider `O=S(=O)(NC[C@@H]1CCCN1)c1ccc(Cl)cc1`, for which the EC50 in test [1] and in test [2] was more than 10 µM in each case. As for `O=S(=O)(NC[C@@H]1CCCN1)c1cccc(Br)c1`, the EC50 in test [1] and in test [2] was more than 10 µM throughout.

Consider `Cc1cccc(S(=O)(=O)NC[C@@H]2CCCN2)c1`, for which the EC50 in test [1] and in test [2] was more than 10 µM each time. With `O=S(=O)(NC[C@@H]1CCCN1)c1ccccc1Cl`, the EC50 in test [2] is 0.0632 µM. Turning to `O=S(=O)(NC[C@@H]1CCCN1)c1ccc2[nH]cnc2c1`, the EC50 was 0.0472 µM in test [1] and 0.131 µM in test [2]. For the molecule `COc1ccc(S(=O)(=O)NC[C@@H]2CCCN2)cc1`, the EC50 in test [2] was found to be 0.0357 µM. For `CC(C)CC(N)c1nc2ccccc2[nH]1` (stereo not given), in test [1], the EC50 was 0.1 µM. Take `O=S(=O)(NC[C@@H]1CCCN1)c1ccc(O)cc1`: the EC50 in test [1] and in test [2] was more than 10 µM each time. Regarding `CNc1ncc(S(C)(=O)=O)c(C2CCCNC2)n1` (stereo not given), the EC50 in test [1] came out at 0.0488 µM. Take `O=S(=O)(NC[C@@H]1CCCN1)c1ccc(C(F)(F)F)cc1`: the EC50 in test [1] and in test [2] was more than 10 µM throughout. For the molecule `CC(=O)Nc1ccc(S(=O)(=O)NC[C@@H]2CCCN2)cc1`, the EC50 in test [2] worked out at 0.0416 µM. As to `O=S(=O)(NC[C@@H]1CCCN1)c1ccccc1Br`, the EC50 in test [1] and in test [2] was more than 10 µM in each case. As for `O=[N+]([O-])c1ccc(S(=O)(=O)NC[C@@H]2CCCN2)cc1`, the concentration giving a half-maximal response (EC50) in test [1] and in test [2] was more than 10 µM each time. For `Cc1ccc(S(=O)(=O)NC[C@@H]2CCCN2)cc1`, the EC50 in test [1] and in test [2] was more than 10 µM each time. In the case of `N#Cc1ccc(S(=O)(=O)NC[C@@H]2CCCN2)cc1`, the EC50 in test [1] and in test [2] was more than 10 µM in each case.

`O=S(=O)(NC[C@@H]1CCCN1)c1c(Cl)cccc1Cl`: the EC50 in test [1] and in test [2] was more than 10 µM in each case. In the case of `O=S(=O)(NC[C@@H]1CCCN1)c1cccc(C(F)(F)F)c1`, the EC50 in test [1] and in test [2] was more than 10 µM in each case.

For the molecule `O=S(=O)(NC[C@@H]1CCCN1)c1ccc(Br)cc1`, the EC50 in test [1] and in test [2] was more than 10 µM each time. On to `O=S(=O)(NC[C@@H]1CCCN1)c1cc(F)cc(F)c1`, for which the EC50 in test [1] and in test [2] was more than 10 µM each time. Take `N#Cc1cccc(S(=O)(=O)NC[C@@H]2CCCN2)c1`: the EC50 in test [1] and in test [2] was more than 10 µM throughout. For the molecule `O=c1[nH]c2cc(S(=O)(=O)NC[C@@H]3CCCN3)ccc2o1`, the EC50 in test [1] was determined as 0.158 µM. Turning to `O=S(=O)(NC[C@@H]1CCCN1)c1ccc2ccccc2c1`, the EC50 in test [2] was 0.055 µM. Consider `O=S(=O)(NC[C@@H]1CCCN1)c1ccccc1C(F)(F)F`, for which the EC50 in test [1] and in test [2] was more than 10 µM throughout. Take `N[C@H]1CN(c2ncccc2C(F)(F)F)C[C@@H]1C1CC1`: the EC50 in test [2] worked out at 0.0912 µM. Consider `O=S(=O)(NC[C@@H]1CCCN1)c1ccc(Cl)s1`, for which the EC50 in test [1] and in test [2] was more than 10 µM throughout.
